In PMC9067539 (Bioorganic & medicinal chemistry letters, 2022):
Read-outs that look alike come from different tables or passages of the source. Blank lines part the entries; values can stand above or below the molecule they belong to.

What was measured:
[1] = target: T1, DYRK1A (Rattus norvegicus, UniProt Q63470); assay: DYRK1A ELISA kinase assay; format: biochemical; conditions: for times less potent against DYRK1A compared to the di-hydroxy derivatives: A-ring hydroxyl removal, vs GCG
[2] = Stability in biological media; format: in vitro ADME; conditions: biological media (plasma and hepatocytes media)
[3] = tested on: MOG35–55-induced murine model of chronic progressive Experimental Autoimmune Encephalomyelitis (EAE); assay: EAE therapeutic model, disease scores; format: in vivo
[4] = mice; cited from earlier work
[5] = cited from earlier work
[6] = target: T1, DYRK1A; assay: DYRK1A ELISA assay with varying concentrations of ATP; format: biochemical; conditions: [ATP] up to 0.8 mM
[7] = tested on: spinal cord inflammation, demyelination, and axonal neurodegeneration; assay: Histopathological analysis of spinal cord sections of EAE mice; format: in vivo; conditions: intranasal vs oral, 15 mg/kg BID
[8] = Exposure after intranasal compared to oral route; format: in vivo; conditions: brain and peripheral blood; data not shown

times less potent against DYRK1A compared to the di-hydroxy derivatives [1]: ~2 times
SMILES: O=C(OC1Cc2c(O)cccc2OC1c1cc(O)c(O)c(O)c1)c1cc(O)c(O)c(O)c1 (centres unmarked) [1b]

times less potent against DYRK1A compared to the di-hydroxy derivatives [1]: about 4 times
IC50 ([1]; read-out: DYRK1A IC50, ELISA assay): 422 nM
SMILES: O=C(O[C@H]1Cc2ccccc2O[C@@H]1c1cc(O)c(O)c(O)c1)c1cc(O)c(O)c(O)c1 (racemic) [1a]

SMILES: O=C(OC1Cc2ccccc2CC1c1cc(O)c(O)c(O)c1)c1cc(O)c(O)c(O)c1 (centres unmarked) [1c]
stability in biological media [2]: does not improve stability in biological media

stability in biological media [2]: improved stability in biological media
fold more potent than catechin gallate (CG) [1]: about 3 fold
SMILES: O=C(O[C@@H]1Cc2c(O)cc(O)cc2O[C@H]1c1ccc(O)c(O)c1)c1cc(O)c(O)c(O)c1F (racemic) [1r]

SMILES: O=C(O[C@@H]1Cc2c(O)cc(O)cc2O[C@@H]1c1cc(O)c(O)c(O)c1)c1cc(O)c(O)c(O)c1 [EGCG, Epigallocatechin gallate]
EAE disease scores ([3]; oral (PO), 15 mg/kg BID): did not see any significant activity
oral bioavailability (F) [4]: up to 12%
oral bioavailability (F) ([5]; rats): up to 5%

SMILES: Oc1cc(O)c2c(c1)O[C@H](c1cc(O)c(O)c(O)c1)[C@H](O)C2 [EGC, EpiGalloCatechin, reference compound]
IC50 [1]: > 100000 nM

SMILES: O=C(O[C@@H]1Cc2c(O)cc(O)cc2O[C@H]1c1cc(O)c(O)c(O)c1F)c1cc(O)c(O)c(O)c1 [1n]
stability in biological media [2]: did not translate into a stability improvement in biological media

SMILES: CCCCCCCCc1ccc(CCC(N)(CO)CO)cc1 [FTY720, Fingolimod, reference compound]
EAE disease scores ([3]; 1 mg/kg QD): reversal of the disease scores

effect of [ATP] on inhibitory potency [6]: only marginally affected
fold improvement in activity against DYRK1A compared to GCG [1]: about 3 fold
SMILES: O=C(O[C@@H]1Cc2c(O)cc(O)cc2O[C@H]1c1cc(O)c(O)c(O)c1)c1cc(O)c(O)c(O)c1F [1f]
EAE disease scores ([3]; intranasal, 15 mg/kg twice daily): reversal of the disease scores similar to that observed with FTY720
EAE disease scores ([3]; oral (PO), 15 mg/kg BID): no significant amelioratory effect until the last two days of the study
spinal cord lesion severity, intranasal versus oral administration [7]: more effective at reducing lesion severity than oral administration

SMILES: COc1cc(C(=O)O[C@@H]2Cc3c(O)cc(O)cc3O[C@@H]2c2cc(O)c(O)c(O)c2)cc(O)c1O [EGCG-3”OMe]
fold improved oral bioavailability than EGCG [5]: about 6 fold

SMILES: O=C(O[C@@H]1Cc2c(O)cc(O)cc2O[C@H]1c1cc(O)c(O)c(O)c1)c1cc(O)c(O)c(O)c1 [(−)GCG, reference compound]
effect of [ATP] on inhibitory potency [6]: only marginally affected

exposure increase with intranasal compared to the oral route [8]: 50 fold
SMILES: O=C(O[C@@H]1Cc2c(O)cc(O)cc2O[C@H]1c1ccc(O)c(O)c1)c1cc(O)c(O)c(O)c1 [CG, catechin gallate]
